Assay results: the supplement of paper PMC10307832

Columns and labels:
Assay in all cases: relative viability (nuclei count vs DMSO), 5 days (fraction); higher = more cells survive
[1] = compound: COc1cc2ncn(-c3cc(OCc4ccccc4C(F)(F)F)c(C(N)=O)s3)c2cc1OC + CC1(C)CCC(c2ccc(Cl)cc2)=C(CN2CCN(c3ccc(C(=O)NS(=O)(=O)c4ccc(N[C@H](CCN5CCOCC5)CSc5ccccc5)c(S(=O)(=O)C(F)(F)F)c4)cc3)CC2)C1 [Navitoclax] (partner 0.5 µM)
Outline: (§1)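 Lung cancer cell lines were pin-tool dosed in 1536-well plates on the day after seeding, with either a lone drug or a fixed anchor-drug dose plus five library-drug doses (not always all listed) in √10 steps. Nuclei were counted on 4× images after 5 days. Relative viability is the ratio of treated-well to vehicle-well nuclei counts, with each value a median of duplicate plates.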

[2] = compound: COc1cc2ncn(-c3cc(OCc4ccccc4C(F)(F)F)c(C(N)=O)s3)c2cc1OC + CCNC(=O)c1noc(-c2cc(C(C)C)c(O)cc2O)c1-c1ccc(CN2CCOCC2)cc1 [Luminespib] (partner 0.01 µM)
Outline: as §1

[3] = compound: COc1cc2ncn(-c3cc(OCc4ccccc4C(F)(F)F)c(C(N)=O)s3)c2cc1OC + COc1cc2c(Oc3ccc(NC(=O)C4(C(=O)Nc5ccc(F)cc5)CC4)cc3F)ccnc2cc1OCCCN1CCOCC1 [Foretinib] (partner 0.25 µM)
Outline: as §1

[4] = compound: COc1cc2ncn(-c3cc(OCc4ccccc4C(F)(F)F)c(C(N)=O)s3)c2cc1OC + C[C@]1(O)C[C@@H](c2nc(-c3ccc4ccc(-c5ccccc5)nc4c3)c3c(N)nccn32)C1 [Linsitinib] (partner 1 µM)
Outline: as §1

| Cell Line | relative viability ([1]; first compound 0.05 µM) | relative viability ([1]; first compound 0.1581 µM) | relative viability ([1]; first compound 0.5 µM) | relative viability ([1]; first compound 1.581 µM) | relative viability ([1]; first compound 5 µM) | relative viability ([2]; first compound 0.05 µM) | relative viability ([2]; first compound 0.1581 µM) | relative viability ([2]; first compound 0.5 µM) | relative viability ([2]; first compound 1.581 µM) | relative viability ([2]; first compound 5 µM) | relative viability ([3]; first compound 0.05 µM) | relative viability ([3]; first compound 0.1581 µM) | relative viability ([3]; first compound 0.5 µM) | relative viability ([3]; first compound 1.581 µM) | relative viability ([3]; first compound 5 µM) | relative viability ([4]; first compound 0.05 µM) | relative viability ([4]; first compound 0.1581 µM) | relative viability ([4]; first compound 0.5 µM) | relative viability ([4]; first compound 1.581 µM) | relative viability ([4]; first compound 5 µM) |
| --- | --- | --- | --- | --- | --- | --- | --- | --- | --- | --- | --- | --- | --- | --- | --- | --- | --- | --- | --- | --- |
| LU99A | 0.87 | 0.786 | 0.434 | 0.169 | 0.124 | 0.225 | 0.304 | 0.207 | 0.172 | 0.203 | 0.564 | 0.87 | 0.572 | 0.302 | 0.216 | 0.502 | 0.522 | 0.224 | 0.212 | 0.161 |
| LXF-289 | 0.852 | 0.72 | 0.192 | 0.104 | 0.0566 | 0.42 | 0.483 | 0.259 | 0.0958 | 0.0607 | 0.92 | 0.858 | 0.483 | 0.158 | 0.0736 | 0.884 | 0.762 | 0.158 | 0.0992 | 0.0585 |
| NCI-H23 | 0.913 | 0.773 | 0.284 | 0.157 | 0.103 | 0.211 | 0.209 | 0.213 | 0.206 | 0.22 | 1.02 | 0.759 | 0.564 | 0.123 | 0.138 | 0.655 | 0.371 | 0.274 | 0.113 | 0.131 |
| NCI-H322M | 1.24 | 1.1 | 0.863 | 0.549 | 0.629 | 0.837 | 1.1 | 0.759 | 0.315 | 0.288 | 0.956 | 1.16 | 0.857 | 0.499 | 0.406 | 0.893 | 0.856 | 0.748 | 0.401 | 0.408 |
| NCI-H441 | 0.623 | 0.405 | 0.233 | 0.151 | 0.164 | 0.312 | 0.378 | 0.216 | 0.224 | 0.202 | 1.03 | 0.871 | 0.266 | 0.249 | 0.226 | 0.395 | 0.315 | 0.205 | 0.152 | 0.149 |
| NCI-H460 | 1.01 | 0.917 | 0.144 | 0.0132 | 0.0107 | 0.0239 | 0.0323 | 0.0299 | 0.0165 | 0.0166 | 1.07 | 0.938 | 0.499 | 0.028 | 0.0214 | 0.836 | 0.832 | 0.0599 | 0.0112 | 0.0063 |
| NCI-H520 | 1.04 | 1.18 | 0.454 | 0.201 | 0.162 | 0.218 | 0.25 | 0.21 | 0.261 | 0.2 | 0.892 | 0.836 | 0.357 | 0.249 | 0.204 | 0.964 | 0.957 | 0.477 | 0.166 | 0.154 |
| NCI-H596 | 0.782 | 0.869 | 0.58 | 0.262 | 0.16 | 1.16 | 1.08 | 0.79 | 0.272 | 0.276 | 1.03 | 0.908 | 0.481 | 0.307 | 0.242 | 1.08 | 1.1 | 0.87 | 0.655 | 0.351 |
| NCI-H647 | 1.17 | 1.08 | 0.245 | 0.0619 | 0.0475 | 0.438 | 0.143 | 0.12 | 0.101 | 0.069 | 1.1 | 1.17 | 0.444 | 0.195 | 0.0972 | 1.07 | 1.09 | 0.267 | 0.101 | 0.126 |
| NCI-H727 | 0.457 | 0.618 | 0.464 | 0.166 | 0.185 | 0.396 | 0.311 | 0.334 | 0.291 | 0.31 | 0.929 | 0.941 | 0.639 | 0.309 | 0.476 | 0.321 | 0.283 | 0.166 | 0.186 | 0.305 |
| NCI-H838 | 1.2 | 1.23 | 0.733 | 0.15 | 0.135 | 0.301 | 0.283 | 0.128 | 0.136 | 0.114 | 1.17 | 1.09 | 0.832 | 0.455 | 0.139 | 1.15 | 1.04 | 0.873 | 0.178 | 0.105 |
| NCI-H1355 | 1.04 | 0.914 | 0.536 | 0.177 | 0.136 | 0.635 | 0.623 | 0.424 | 0.221 | 0.163 | 0.935 | 0.888 | 0.642 | 0.218 | 0.139 | 0.857 | 0.863 | 0.617 | 0.203 | 0.156 |
| NCI-H1395 | 1.17 | 1.17 | 0.611 | 0.447 | 0.384 | 0.753 | 0.814 | 0.579 | 0.321 | 0.359 | 0.932 | 1.01 | 0.686 | 0.448 | 0.556 | 0.967 | 1 | 0.593 | 0.395 | 0.388 |
| NCI-H1437 | 1.13 | 1.07 | 0.151 | 0.13 | 0.119 | 1.16 | 0.969 | 0.53 | 0.244 | 0.159 | 1.38 | 1.17 | 0.456 | 0.267 | 0.194 | 1.09 | 1.01 | 0.11 | 0.1 | 0.09 |
| NCI-H1651 | 1.12 | 1.24 | 0.835 | 0.0858 | 0.0692 | 1.15 | 0.858 | 0.36 | 0.137 | 0.109 | 0.832 | 0.893 | 0.655 | 0.118 | 0.102 | 1 | 1.14 | 0.528 | 0.117 | 0.0945 |
| NCI-H1666 | 0.814 | 1.05 | 0.308 | 0.225 | 0.205 | 1.06 | 0.937 | 0.508 | 0.36 | 0.363 | 0.927 | 0.832 | 0.507 | 0.393 | 0.354 | 0.821 | 0.953 | 0.37 | 0.219 | 0.248 |
